Source: patent publication US4005096A, “Therapeutically active phenoxyalkylamines” (Biersdorf Aktiengesellschaft, priority 1973, dated 1977)
Where a name gives a salt, the structure may show the parent alone. Read-outs that look alike come from different tables or passages of the source.

Legend:
[1] = acute toxicity (LD50 Mouse), Litchfield and Wilcoxon; details: in vivo
Text: Tests to determine the toxicity have been carried out. In each case 6 mice were given a particular dose of the compound to be tested combined with a suitable neutral diluent, administration being carried out perorally, intraveneously and/or intraperitoneally.
The statistical evaluation took place according to the method of J. F. Litchfield, Jr. and F. Wilcoxon in: "Journal of Pharmacology and Experimental Therapeutics", Volume 96 (1949), pages 99-113.
In the following Table II the toxicity of Compounds A to M are given.

[2] = tested on: rats having artificially promoted high blood pressure (according to Goldblatt); assay: blood pressure reduction in rats having artificially promoted high blood pressure (according to Goldblatt), plethysmographic at base of tail; format: in vivo; details: Rattus norvegicus, single dose; for change in vivo at 20 mg/kg: 20 mg/kg p.o.
Procedure: To show the blood pressure reducing properties of typical compounds according to the invention, products of the Examples were administered, to rats having artificially promoted high blood pressure (according to Goldblatt), in the form of solution either by injection under the skin of the back (subcutaneously) or by means of a stomach tube (perorally). 1,2.5 and 4 hours (and 1.75 hours in the case of Compound A) after administration of the substance the systolic and diastolic blood pressures were measured plethysmographically at the base of the tail of the rat. In the following Table I there is given for each of the individual compounds (designated A to M) the average value of the blood pressure in mm Hg before the administration of the compound, the time (determined from the measuring time) of maximum blood pressure reduction and the maximum reduction of the systolic and diastolic blood pressures expressed as a percentage of the initial value after a single administration of the dose.

[3] = sc, 10 mg/kg s.c., at the time given in the same line, read-out: Maximum blood pressure reduction, diastolic (percent of initial value)
[4] = sc, 10 mg/kg s.c., at the time given in the same line, read-out: Maximum blood pressure reduction, systolic (percent of initial value)

For `COc1ccccc1OCCNCc1ncccc1O.Cl.Cl` [Compound M, N-[(3-Hydroxy-2-pyridyl)-methyl]-o-methoxy-phenoxyethylamine dihydrochloride], the LD50 ([1]; iv) was 55.6 mg/kg, the change in vivo at 10 mg/kg [2, 3] was -12% and the change in vivo at 10 mg/kg [2, 4] was -11%.
Work on `COc1ccccc1OCCNCCc1ccccn1` [Compound B, N-[2-Pyridyl-ethyl(2)]-o-methoxy-phenoxyethylamine . 2 HCl] yielded an LD50 ([1]; ip) of 150 mg/kg, an LD50 ([1]; iv) of 31.5 mg/kg and a change in vivo at 10 mg/kg [2, 3] of -23%. The change in vivo at 10 mg/kg [2, 4] was -20%.
With `COc1ccccc1OCCNCc1ccccn1` [Compound D, N-(2-Pyridyl-methyl)-o-methoxy-phenoxyethylamine. 2 HCl] the LD50 ([1]; ip) was 150 mg/kg, the LD50 ([1]; iv) was 51 mg/kg and the LD50 ([1]; po) was 750 mg/kg. The change in vivo at 10 mg/kg [2, 3] was -25% and the change in vivo at 10 mg/kg [2, 4] was -22%.
`N#Cc1ccccc1OCCNCCc1ccncc1` [Compound L, N-[4-Pyridyl-ethyl(2)]-o-cyano-phenoxyethylamine dioxalate hydrate] gave an LD50 ([1]; ip) of 91 mg/kg, an LD50 ([1]; po) of 245 mg/kg and a change in vivo at 10 mg/kg [2, 3] of -19%. For the same compound, the change in vivo at 10 mg/kg [2, 4] was -17%.
With `Cc1cccnc1CNCCOc1ccccc1Cl` [Compound H, N-[(3-Methyl-2-pyridyl)-methyl]-o-chloro-phenoxyethylamineoxalate hydrate] the LD50 ([1]; ip) was 220 mg/kg, the LD50 ([1]; iv) was 50 mg/kg and the change in vivo at 10 mg/kg [2, 3] was -16%. The change in vivo at 10 mg/kg [2, 4] was -16%.
`Cc1cccnc1CNCCOc1ccccc1C#N` [Compound J, N-[(3-Methyl-2-pyridyl)-methyl]-o-cyano-phenoxyethylamineoxalate hydrate] showed an LD50 ([1]; iv) of 73.3 mg/kg, an LD50 ([1]; po) of 660 mg/kg and a change in vivo at 10 mg/kg [2, 3] of -12%. For the same compound, the change in vivo at 10 mg/kg [2, 4] was -11%.
`COc1ccccc1OCCNCCc1ccncc1` [Compound A, N-[4-Pyridyl-ethyl(2)]-o-methoxy-phenoxyethylamine.2 HCl] showed an LD50 ([1]; ip) of 150 mg/kg, an LD50 ([1]; iv) of 53.5 mg/kg and an LD50 ([1]; po) of 290 mg/kg. The change in vivo at 20 mg/kg ([2]; po, read-out: Maximum blood pressure reduction, diastolic (percent of initial value)) was -32%, the change in vivo at 20 mg/kg ([2]; po, read-out: Maximum blood pressure reduction, systolic (percent of initial value)) was -28% and the change in vivo at 10 mg/kg [2, 3] was -34%. For the same compound, the change in vivo at 10 mg/kg [2, 4] was -25%.
Work on `Clc1ccccc1OCCCCNCCc1ccncc1` [Compound K, N-[4-Pyridyl-ethyl(2)]-o-chloro-phenoxybutylamine dioxalate monohydrate] yielded an LD50 ([1]; ip) of 182 mg/kg, an LD50 ([1]; po) of 235 mg/kg and a change in vivo at 10 mg/kg [2, 3] of -19%. It also gave a change in vivo at 10 mg/kg [2, 4] of -15%.
With `COc1ccccc1OCCNCc1ccncc1` [Compound E, N-(4-Pyridyl-methyl)-o-methoxy-phenoxyethylamine . 2 HCl] the LD50 ([1]; ip) was 364 mg/kg, the LD50 ([1]; iv) was 90.1 mg/kg and the LD50 ([1]; po) was 730 mg/kg. It also gave a change in vivo at 10 mg/kg ([2]; po, 10 mg/kg p.o., read-out: Maximum blood pressure reduction, diastolic (percent of initial value)) of -22%, a change in vivo at 10 mg/kg ([2]; po, 10 mg/kg p.o., read-out: Maximum blood pressure reduction, systolic (percent of initial value)) of -20% and a change in vivo at 10 mg/kg [2, 3] of -18%. For the same compound, the change in vivo at 10 mg/kg [2, 4] was -15%.
For `Clc1ccccc1OCCNCCc1ccncc1` [Compound G, N-[4-Pyridyl-ethyl(2)]-o-chloro-phenoxyethylamine dioxalate dihydrate], the LD50 ([1]; ip) was roughly 200 mg/kg and the LD50 ([1]; iv) was 71.7 mg/kg.
For `COc1ccccc1OCCNCc1cccnc1` [Compound C, N-(3-Pyridyl-methyl)-o-methoxy-phenoxyethylamine .2 HCl], the LD50 ([1]; ip) was 150 mg/kg, the LD50 ([1]; iv) was 73.3 mg/kg and the LD50 ([1]; po) was 390 mg/kg. It also gave a change in vivo at 10 mg/kg [2, 3] of -16% and a change in vivo at 10 mg/kg [2, 4] of -15%.
Compound `Clc1ccccc1OCCCNCCc1ccncc1` [Compound F, N-[4-Pyridyl-ethyl(2)]-o-chloro-phenoxypropylamine dioxalate dihydrate] has an LD50 ([1]; ip) greater than 800 mg/kg.
